Square brackets hold non-standard residues; d marks the D form. Ends that are not written are not given here. Peptide text beside a SMILES is read from it.
Columns and labels:
[1] = Plasma level of fluoresceinated W82-89 after i.p. or i.n. delivery; set-up: species or system mice; details: mouse, in vivo
Experimental: administration of the water soluble CSD peptides is a promising route of delivery. Two mice received a single i.p. injection of 0.8 μmol/kg fluoresceinated W82-89 in 100 μl PBS. Two mice received fluoresceinated W82-89 i.n. (4 μmol/kg in 30 μl PBS (15 μl per nostril)). Using calibrated capillary tubes, 50 μl of blood was collected from the maxillary vein from one mouse from each pair at 3 min, 30 min, 2 h, and 6 h; and from the other mouse from each pair at 10 min, 1 h, 4 h, and 8 h. Blood was immediately diluted with 200 μl PBS/10 mM EDTA, and centrifuged to harvest plasma. The level of W82-89 in the plasma was determined using a fluorescent plate reader.

Ang II-infused mice = assay: Angiotensin II-induced congestive heart failure (CHF) model; format: in vivo; details: for suppression of the effects of AngII on Heart Weight/Body Weight (HW/BW) ratio: young mice (3 months) infused with Ang II two weeks
Experimental: FIG. 1 provides an overview of an experiment using Full-Length CSD, 82-89, 88-95, and 94-101 (SEQ ID NO:1, SEQ ID NO:2, SEQ ID NO:3, and SEQ ID NO:4 respectively).
Young mice (3 months old) infused with Ang II or vehicle for two weeks received daily i.p. injections of CSD, the indicated subdomains or scrambled CSD (0.8 μmol/kg). Mice were evaluated by Echocardiography for changes in posterior wall thickness (pWTh), fractional shortening (FS), cardiac output (CO), ejection fraction (EF), and isovolumic relaxation time (IVRT). Significant changes are shown as ***p<0.001 for Sham+Veh vs AngII+Veh. Significant suppression of AngII-induced changes is shown as ^p<0.05, ^^p<0.01, and ^^^p<0.001 for AngII+Veh vs AngII+CSD or AngII+CSD subdomains. The number of mice used in each treatment are shown in the HW/BW data.
Young mice (3 months old) infused with Ang II or vehicle for two weeks received daily i.p. injections of the indicated subdomains of CSD. The results of a typical experiment for Col I and HSP47 (FIG. 4) and for microvascular leakage (FIG. 5) are shown in Western blots (2 to 3 mice per group). The data are quantified below (n=4). Significant changes are shown as *p<0.05 and **p<0.01 for Sham+Veh vs Ang II+Veh. Significant suppression of Ang II-induced changes by subdomains are shown as ^p<0.05, […], and ^^^p<0.001 for Ang II+Veh vs Ang II+CSD subdomains.
Young mice (3 months old) infused with Ang II or vehicle for two weeks received daily i.p. injections of W82-89. IgG heavy chain (IgGH) leakage and Col I accumulation are shown in Western blots. The actin loading control is present twice because IgGH was analyzed in the supernatant fraction of heart homogenate while Col I is found in the pellet fraction. In the quantitation (n=4), significant changes are shown as **p<0.01 and ***p<0.001 for Sham+Veh vs Ang II+Veh and ^^p<0.01 and ^^^p<0.001 for reversal of AngII-induced changes by W82-89.

[2] = in vivo, ip
Experimental: Following a single i.p. dose of the indicated fluorescent peptides, blood was collected from the maxillary vein at intervals and the levels of the peptides in plasma derived from the blood was determined using a fluorescent plate reader.

[3] = tested on: aged C57/Bl6 mice (18 months); assay: Aging-associated pathological changes in heart and kidney of aged mice; format: in vivo; details: echocardiography
[4] = tested on: aged mice (18-month old), brain tissue; assay: Aging-associated pathological changes in the brain of aged mice; format: in vivo; details: 18-month old mice; CSD injections for four weeks; Western blot
Experimental: FIG. 16 provides an overview of an experiment using CSD (SEQ ID NO: 1). It is similar to the experiment described in FIG. 9 except that the readouts were performed on brain tissue rather than heart and kidney tissue.
Mice were treated as described in FIG. 10, except that CSD injections were for four weeks. Brain tissue extracts were analyzed by Western blot for microvascular leakage and fibrosis (FIG. 17) and for tyrosine kinase activation (FIG. 18). In the quantifications (n=3), significant changes are shown as ***p<0.001 and **p<0.01 between young and aged mice and ^^^p<0.001 and ^^p<0.01 for decreases in aged mice due to CSD treatment.

[5] = tested on: Bone marrow (BM) monocytes; assay: Migration of bone marrow monocytes from bleomycin-treated mice treated in vivo; details: mice treated in vivo prior to harvesting the monocytes
From the text: Recruitment of activated monocytes into damaged lung tissue contributes to the progression of fibrosis and is suppressed in vivo by CSD (FIG. 22). Bone marrow (BM) monocytes were isolated from control and bleomycin-treated mice.

[6] = tested on: aged C57/Bl6 mice (18 months); assay: Aging-associated pathological changes in heart and kidney of aged mice; format: in vivo
Experimental: The function of various organs in the elderly goes downhill progressively. This is in part due to increases in fibrosis and microvascular leakage. The experiments presented in this Example have examined these progressive processes in mice.
Young C57/Bl6 mice (3 months), middle-aged C57/Bl6 mice (9 months), and aged C57/Bl6 mice (18 months) were injected daily i.p. for six weeks with saline vehicle or CSD. IgG heavy chain leakage and Col I accumulation were evaluated by Western blots of heart (FIG. 10) and kidney tissue (FIG. 11). Actin was the loading control. Two to three mice per category are shown. In the quantifications (n=4), significant changes are shown as ***p<0.001 between young and aged mice and ^^^p<0.001 for decreases in aged mice treated with CSD. In FIG. 12, representative examples of picrosirius red staining of heart and kidney tissue sections from the indicated mice are shown. The data were quantified (n=3) as in terms of Collagen Volume Fraction. Significant changes are shown as ***p<0.001 and **p<0.01 between young and aged mice and ^p<0.05 for decreases in aged mice treated with CSD.
The same extracts used in FIG. 10 and FIG. 11 were analyzed by Western Blot for tyrosine kinase activation using antibodies specific for phosphorylated tyrosine residues in PDGFR (α-Y849/β-Y857), c-Src Y426, and Pyk2 Y402. Actin was the loading control. In the quantifications, significant changes are shown as ***p<0.001 and **p<0.01 between young and aged mice and ^^^p<0.001 and ^^p<0.01 for decreases in Aged mice treated with CSD.
Echocardiographic analyses were performed on the same mice used in FIG. 10 and FIG. 11 prior to their sacrifice. M-mode echo measurements in parasternal short-axis (PSAX) view were used to quantify changes in EF and FS. Tissue Doppler measurements in PSAX were used to measure IVRT. Values are shown as Mean±SEM. Statistically significant changes are shown as ***p<0.001 between young and aged mice and ^p<0.05 for improved functions in aged mice due to CSD treatment (FIG. 14).
Left ventricle tissue sections from the same mice used in FIG. 10 were stained with hematoxylin-eosin and cardiomyocyte cross-sectional area was quantified by measuring at least 50 cardiomyocytes for each group (n=3) using SigmaScan Pro image analysis. Statistical significance is shown as ***p<0.001 between young and aged mice and ^p<0.05 for decreased hypertrophy in aged mice due to CSD treatment (FIG. 15).

[7] = tested on: fibrosis in lung, skin, and heart; details: literature; cited from earlier work
bleomycin-treated mice = assay: Bleomycin-induced lung and skin fibrosis, treatments delivered by pump; format: in vivo
Experimental: Experiments were conducted to examine the effect of unmodified CSD subdomains on lung and skin fibrosis. […] Pumps containing bleomycin or saline vehicle were implanted subcutaneously into mice. After one week, the pumps had emptied and were replaced with pumps designed to empty over two weeks containing the indicated treatments (n=6 per group). After these two weeks, the mice were sacrificed.
Skin in the vicinity of the pump outlet was harvested for measurement of the thickness of the dermis and the intradermal fat. ^^^p<0.001 for Saline/Vehicle vs Bleo/Vehicle. ***p<0.001, **p<0.01, *p<0.05 for Bleo/Vehicle vs Bleo/Peptide Treatments.

[8] = 18-month old mice, daily i.p. six weeks, Western blot
[9] = aged mice, Western blot for phosphorylated tyrosine residues
[10] = skin in the vicinity of the pump outlet

CC[C@H](C)[C@H](NC(=O)CNC(=O)[C@H](CC(=O)O)NC(=O)[C@@H](CCCCN)NC(=O)[C@@H](CCCCN)NC(C)=O)C(=O)N[C@@H](Cc1c[nH]c2ccccc12)C(=O)N[C@@H](CCCCN)C(=O)N[C@@H](C)C(=O)N[C@@H](CO)C(=O)N[C@@H](Cc1ccccc1)C(=O)N[C@H](CCCCN)C(=O)N[C@H](CCCCN)C(N)=O [W82-89] (Ac-[dK][dK]DGIWKASF[dK][dK]-NH2)
Area Under the Curve for i.n. delivery relative to i.p. dose [1]: > 1.5 fold | suppression of AngII-induced fibrosis (Col I levels) in the heart (Ang II-infused mice; W82-89 experiment (FIG. 6, 7), daily i.p. injections): suppressed by W82-89 with high significance | suppression of AngII-induced microvascular leakage in the heart (IgG heavy chain level in the tissue) (Ang II-infused mice; Western blot, daily i.p. injections): suppressed by W82-89 with high significance | overall effectiveness of domains in the CHF model (summary of FIGS. 1-7) (Ang II-infused mice; summary, FIG. 8): more effective than 82-89 and at least as effective as 88-95 | suppression of the effects of AngII on Heart Weight/Body Weight (HW/BW) ratio (Ang II-infused mice; daily i.p. injections): suppressed by W82-89 with high significance | uptake into plasma following i.p. administration [2]: much greater than the uptake of CSD or WCSD

caveolin-1 scaffolding domain peptide (DGIWKASFTTFTVTKYWFYR-NH2) [CSD, amino acids 82-101 of caveolin-1]
FS and SV (ventricular function) [3]: positive effect | suppression of the effects of AngII on Heart Weight/Body Weight (HW/BW) ratio (Ang II-infused mice; daily i.p. injections): suppress | suppression of the effects of AngII on Ejection Fraction (EF), Fractional Shortening (FS), Isovolumic Relaxation Time (IVRT) (Ang II-infused mice; young mice infused with Ang II two weeks, daily i.p. injections, echocardiography): suppress | level of activated tyrosine kinases in the brain [4]: decreases these levels almost to the levels observed in healthy 3-month old mice | level of fibrosis in the brain [4]: decreases these levels almost to the levels observed in healthy 3-month old mice | level of microvascular leakage in the brain [4]: decreases these levels almost to the levels observed in healthy 3-month old mice | enhanced migration of BM monocytes from bleomycin-treated mice [5]: suppression | level of fibrosis (Col I accumulation) in the heart [6, 8]: reverses the levels of fibrosis and microvascular leakage almost to the level observed in 3-month old mice | level of fibrosis (Col I accumulation) in the kidney [6, 8]: reverses the levels of fibrosis and microvascular leakage almost to the level observed in 3-month old mice | level of microvascular leakage (IgG heavy chain) in the heart [6, 8]: reverses the levels of fibrosis and microvascular leakage almost to the level observed in 3-month old mice | level of microvascular leakage (IgG heavy chain) in the kidney [6, 8]: reverses the levels of fibrosis and microvascular leakage almost to the level observed in 3-month old mice | picrosirius red staining (collagen volume fraction), heart ([6]; aged mice, heart tissue sections): significantly reduced | picrosirius red staining (collagen volume fraction), kidney ([6]; aged mice, kidney tissue sections): significantly reduced | aging-associated activation of tyrosine kinases PDGFR, c-Src and Pyk2, heart [6, 9]: almost completely reversed | aging-associated activation of tyrosine kinases PDGFR, c-Src and Pyk2, kidney [6, 9]: almost completely reversed | IVRT (prolonged ventricular relaxation time caused by aging) ([6]; aged mice, echocardiography): resolved by CSD treatment | cardiomyocyte hypertrophy (cross-sectional area) ([6]; aged mice, left ventricle sections): reversed | inhibition of fibrosis in vivo [7]: inhibits fibrosis in vivo in lung, skin, and heart | dermal fibrosis (thickness of the dermis) (bleomycin-treated mice; [10]): suppression | loss of intradermal fat (bleomycin-treated mice; [10]): suppression | bleomycin-induced lung fibrosis (Ashcroft score) (bleomycin-treated mice; treatment by pump over two weeks after one week bleomycin, n=6): suppression
